In PubChem BioAssay (NCI) one finds TGI and GI50 data, which are given here for ten compounds.

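Dose response: 5 concentrations. Exposure: 48 h. Format: 96-well plates. Endpoint: linear interpolation; highest concentration if not reached. GI50 marks 50% less growth. The concentration for full growth arrest is given as TGI.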

Test systems include A549 NSCLC; SF-539 CNS; PC-3 prostate; MDA-MB-435; CCRF-CEM leukemia; EKVX NSCLC; TK-10 renal; OVCAR-8 ovarian; UACC-257 melanoma; T-47D breast.
Test in all cases: NCI-60 cell line screen, 48 h

Take `Oc1nc(N/N=C/c2c[nH]c3ccccc23)[nH]c1/C=C1\C=Nc2ccccc21`: the TGI in the assay with A549 NSCLC worked out at 42.3 µM; in the assay on SF-539 CNS it was 48.4 µM; in the assay with PC-3 prostate it was 32 µM; in the assay on MDA-MB-435, 62.4 µM; in the assay with CCRF-CEM leukemia, 25.3 µM; in the assay on EKVX NSCLC it was 89.6 µM. Besides, the TGI in the assay on TK-10 renal is above 100 µM; in the assay with OVCAR-8 ovarian, 29.2 µM; with UACC-257 melanoma, 79.4 µM; in the assay on T-47D breast, 36.5 µM.

As to `CCN1CCN(C(=O)[C@]23CC[C@@H](C)[C@H](C)[C@@H]2C2=CC[C@@H]4[C@@]5(C)C/C(=C/c6cccnc6)C(=O)C(C)(C)[C@@H]5CC[C@@]4(C)[C@]2(C)CC3)CC1`, the GI50 with A549 NSCLC is 3.15 µM; in the assay with SF-539 CNS, 1.66 µM; in the assay on PC-3 prostate, 1.49 µM; with MDA-MB-435 it was 1.7 µM; in the assay on CCRF-CEM leukemia, 2.78 µM; in the assay on EKVX NSCLC it was 2.17 µM. Also, the GI50 in the assay on TK-10 renal is 2.87 µM; with OVCAR-8 ovarian it was 2.32 µM; with UACC-257 melanoma, 2.21 µM; with T-47D breast, 2.79 µM. Besides, the TGI worked out at 16.8 µM with A549 NSCLC; 3.05 µM in the assay with SF-539 CNS; 3.85 µM with PC-3 prostate; 3.49 µM in the assay on MDA-MB-435; 8.97 µM in the assay on CCRF-CEM leukemia; 7.32 µM in the assay with EKVX NSCLC. For the same compound, the TGI in the assay with TK-10 renal is 9.4 µM; in the assay with OVCAR-8 ovarian, 6.29 µM; with UACC-257 melanoma it was 5.95 µM; in the assay with T-47D breast it was 13.4 µM.

With `COc1cc(/C=C2\C[C@H]3[C@@H]4CC=C5C[C@@H](N6CCCC6)CC[C@]5(C)[C@H]4CC[C@]3(C)[C@H]2O)cc(OC)c1OC`, the TGI with A549 NSCLC is 33.1 µM; in the assay on SF-539 CNS it was 32.2 µM; in the assay with PC-3 prostate, 28.8 µM; in the assay with MDA-MB-435, 18.5 µM; in the assay with CCRF-CEM leukemia, above 100 µM; in the assay with EKVX NSCLC, 30.2 µM. Further, the TGI in the assay with TK-10 renal worked out at 34.6 µM; in the assay on OVCAR-8 ovarian, 23.4 µM; in the assay on UACC-257 melanoma, 28.5 µM; in the assay on T-47D breast, 44.6 µM.

Regarding `CCN(CC)CCCCCCCCNc1c2ccc(Cl)cc2nc2ccc(OC)cc12`, the GI50 with A549 NSCLC was 1.56 µM; with SF-539 CNS it was 1.42 µM; in the assay with PC-3 prostate it was 1.64 µM; with MDA-MB-435, 1.87 µM; with CCRF-CEM leukemia it was 0.634 µM; in the assay on EKVX NSCLC, 2.11 µM. Besides, the GI50 in the assay on TK-10 renal was 1.83 µM; with OVCAR-8 ovarian, 1.39 µM; with UACC-257 melanoma it was 1.97 µM; in the assay with T-47D breast, 2.82 µM. Besides, the TGI with A549 NSCLC amounted to 3.62 µM; in the assay with SF-539 CNS it was 2.87 µM; in the assay with PC-3 prostate, 4.06 µM; in the assay on MDA-MB-435, 3.74 µM; in the assay on CCRF-CEM leukemia it was 6.32 µM; in the assay with EKVX NSCLC, 6.13 µM. Also, the TGI in the assay on TK-10 renal was 4.24 µM; with OVCAR-8 ovarian it was 3.64 µM; in the assay on UACC-257 melanoma it was 3.57 µM; in the assay on T-47D breast, 6.91 µM.

Turning to `Cc1c(CNc2ccc(Cl)c(C(=O)NC(CC(=O)O)C(=O)O)c2)ccc2nc(N)nc(N)c12` (stereo unspecified), the TGI in the assay with A549 NSCLC, in the assay on SF-539 CNS, in the assay on PC-3 prostate, with MDA-MB-435, in the assay with CCRF-CEM leukemia and with EKVX NSCLC was above 1000 µM in each case. The TGI in the assay on TK-10 renal, with OVCAR-8 ovarian, with UACC-257 melanoma and in the assay with T-47D breast was above 1000 µM in each case. In addition, the GI50 with SF-539 CNS was 0.446 µM; in the assay on PC-3 prostate it was below 0.01 µM; with EKVX NSCLC, 284 µM; in the assay with TK-10 renal, 363 µM; in the assay on UACC-257 melanoma it was 2.97 µM; in the assay with T-47D breast it was above 1000 µM.

Consider `O=C(O)CC(NC(=O)Nc1ccc([N+](=O)[O-])cc1)C(=O)Nc1ccc([N+](=O)[O-])cc1` (stereo unspecified), for which the TGI in the assay with A549 NSCLC, with SF-539 CNS, in the assay with PC-3 prostate, in the assay on MDA-MB-435, in the assay with CCRF-CEM leukemia and in the assay with EKVX NSCLC was above 100 µM each time. Moreover, the TGI in the assay with TK-10 renal, in the assay with OVCAR-8 ovarian, with UACC-257 melanoma and in the assay on T-47D breast was above 100 µM throughout.

Regarding `CN(C(=O)C12C3C4(C(=O)O)C1(C(=O)N(C)C(C)(C)C)C1C2(C(=O)O)C3(C(=O)N(C)C(C)(C)C)C14C(=O)N(C)C(C)(C)C)C(C)(C)C` (stereo unspecified), the TGI in the assay with A549 NSCLC, in the assay on SF-539 CNS, in the assay with PC-3 prostate, in the assay with MDA-MB-435, in the assay on CCRF-CEM leukemia and in the assay with EKVX NSCLC was above 100 µM in each case. Further, the TGI with TK-10 renal, with OVCAR-8 ovarian, in the assay on UACC-257 melanoma and in the assay with T-47D breast was above 100 µM in each case.

For `COC(=O)c1c(OC(C)=O)ccc2c1c1c(OC(C)=O)c3ccccc3c(OC(C)=O)c1n2Cc1cc(OC)cc(OC)c1`, the TGI was above 100 µM in the assay on A549 NSCLC; 9.27 µM in the assay with SF-539 CNS; above 100 µM with PC-3 prostate; 78.3 µM in the assay on MDA-MB-435; above 100 µM in the assay with CCRF-CEM leukemia; 26.7 µM with EKVX NSCLC. For the same compound, the TGI in the assay on TK-10 renal was above 100 µM; with OVCAR-8 ovarian, above 100 µM; in the assay with UACC-257 melanoma, above 100 µM; with T-47D breast it was 48.9 µM.

Regarding `COc1ccc2oc(S(=O)(=O)N3CC(CCl)c4ccc([N+](=O)[O-])cc43)cc2c1` (stereo unspecified), the TGI with A549 NSCLC was 18.1 µM; in the assay on SF-539 CNS it was 0.308 µM; in the assay with PC-3 prostate, 11.5 µM; with MDA-MB-435, 0.169 µM; in the assay on CCRF-CEM leukemia it was above 100 µM; with EKVX NSCLC, 48.8 µM. Also, the TGI with TK-10 renal was above 55.2 µM; in the assay on OVCAR-8 ovarian, 4.36 µM; in the assay on UACC-257 melanoma, above 32.1 µM; with T-47D breast it was 79.8 µM.

With `CC1(CCCC2(C)CCNC2=O)OCCO1` (stereo unspecified), the TGI with A549 NSCLC, in the assay with SF-539 CNS, in the assay on PC-3 prostate, with MDA-MB-435, in the assay on CCRF-CEM leukemia and with EKVX NSCLC was above 10 µM throughout. In addition, the TGI in the assay on TK-10 renal, in the assay on OVCAR-8 ovarian, with UACC-257 melanoma and in the assay on T-47D breast was above 10 µM throughout.
